Measurements taken from US20100204487A1, “PROCESS FOR MAKING THIOPHENE CARBOXAMIDE DERIVATIVES” (priority 2007, published 2010).
Counter-ions that a name gives are not always drawn.

Experiments:
[1] = in vivo
[2] = pharmacokinetics / bioavailability of free acid and salts of the compound of Formula I; conditions: free acid

| exposure [1] | bioavailability [2] | Compound |
| --- | --- | --- |
| doubled the exposure |  | Cc1sc(C)c(C(=O)NC2(c3ccc(C(=O)O)cc3)CC2)c1Cc1ccc(C(F)(F)F)cc1 [Et2NH salt, 4-{1-[({2,5-dimethyl-4-[4-(trifluoromethyl)benzyl]-3-thienyl}carbonyl)amino]cyclopropyl}benzoic acid diethylamine salt] |
|  | poorly bioavailable | Cc1sc(C)c(C(=O)NC2(c3ccc(C(=O)O)cc3)CC2)c1Cc1ccc(C(F)(F)F)cc1 [free acid of Formula I] |
